Results reported in article PMC3754872 (The Journal of Experimental Medicine, 2013).

Legend:
CXCR2 [1] = molecular target: T1, CXCR2 (Mus musculus, UniProt P35343); experiment: displacement of […]-IL-8 from CXCR2-expressing L1.[…] cells; type: binding
T1 sequence (P35343 1-359): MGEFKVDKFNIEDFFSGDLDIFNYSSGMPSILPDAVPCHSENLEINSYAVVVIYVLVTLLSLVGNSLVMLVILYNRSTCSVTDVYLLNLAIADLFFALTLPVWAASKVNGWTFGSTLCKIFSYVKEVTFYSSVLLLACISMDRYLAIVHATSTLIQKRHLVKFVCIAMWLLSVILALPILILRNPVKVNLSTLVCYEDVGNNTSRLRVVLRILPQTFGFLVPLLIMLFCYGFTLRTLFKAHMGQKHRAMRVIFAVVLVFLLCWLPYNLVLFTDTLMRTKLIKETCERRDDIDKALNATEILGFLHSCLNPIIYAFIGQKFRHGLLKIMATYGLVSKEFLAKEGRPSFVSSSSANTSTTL

CXCR2 [2] = molecular target: T1, CXCR2; experiment: inhibition of agonist-stimulated; type: biochemical

Row | IC50 (CXCR2 [2]) | Structure (SMILES) | EC50 (CXCR2 [1])
1 |  | CC(C)CCC(O)[C@@H](C)[C@H]1CC[C@H]2[C@@H]3CC=C4C[C@@H](O)CC[C@]4(C)[C@H]3CC[C@]12C (stereo partly drawn) [22R-HC] | 1320 ± 250 nM
2 | 16.6 ± 3.64 nM | O=C(Nc1ccc([N+](=O)[O-])cc1O)Nc1ccccc1Br [SB225002] | 
